Structures can show the parent of a compound that is named as a salt.
Experiments:
[1] = tested on: Chinese hamster ovary cells (CHO-DHFR−); experiment: Absorption test using cells (cell growth promotion / retardation); format: cell-based; conditions: 2-day culture; for Optimum cell growth concentration: Cell Counting Kit 8, absorbance 450 nm, concentration at which cell count is largest (about 5%) compared to without PQQ, tested 150 to 2.3 μg/mL; for Cell growth retarding concentration: concentration at which total cell count is decreased by about 10% compared to without PQQ
Method: PQQ has effects of promoting cell growth and of retarding cell growth at a higher concentration on cultured animal cells. Based on these effects, change in the cell absorption was tested.
Chinese hamster ovary cells (CHO-DHFR^−, Dainippon Sumitomo Pharma Co., Ltd.) were cultured in a medium (alpha-MEM+10% fetal bovine serum) containing 5% CO2 at 37° C. The cultured cells were added together with 100 μL of the medium to each well of the 96-well plate (IWAKI) so that the cell density per well is 6,000 cells/well, and culture was performed overnight. The culture solution was removed, and the medium having a predetermined test concentration was added thereto. After a 2-day culture, the medium was replaced, a Cell Counting Kit 8 (from DOJINDO LABORATORIES) was used to stain the cells for one hour, and measurement of absorbance was performed at 450 nm. The absorbance in this case is proportional to the cell number.
As the test samples, the crystalline calcium salts of PQQ in Examples 1 and 2 above, and the disodium salt of PQQ or the raw material in Test Example 1, were used for testing after dilution by the medium. The test was duplicated for each sample, and the results were averaged.
The concentration at which the cell count due to PQQ is largest (about 5%) compared to the case without PQQ is recorded as the optimum cell growth concentration. In addition, the concentration at which the total cell count is decreased by about 10% compared to the case without PQQ is recorded as the cell-growth retarding concentration.

[2] = Elution test: amount of PQQ dissolved from the calcium salt with or without a chelating substance; format: physicochemical; conditions: for Dissolved amount: added to water (1 mL), four hours at room temperature, centrifugation, absorption at 450 nm
Method: Changes in the solubility of the insoluble salt due to the addition of a chelating substance were measured.

[3] = Water solubility of the recovered solid (description); format: physicochemical; conditions: dried solid
[4] = Release of PQQ from the white calcium salt in solvents; format: physicochemical; conditions: for Appearance: 40° C., five hours
Method: After keeping each resultant mixture at 40° C. for five hours, centrifugation was performed to remove solids, and PQQ was analyzed on high performance liquid chromatography.

Row | Dissolved amount [2] [%] | solubility of the calcium salt alone ([2]; water, no chelating substance) | water solubility [3] | Appearance ([4]; Acetic acid 30 mM + Ammonium acetate 70 mM (pH 5)) | Appearance ([4]; Dimethyl sulfoxide) | Appearance ([4]; Na2HPO4 23.5 g/L NaH2PO4 5 g/L) | Appearance ([4]; PBS (GIBCO, pH 7.4)) | Appearance ([4]; Simulated gastric fluid (pH 1.7)) | release of calcium ions ([4]; neutral solution of phosphoric acid) | release of calcium ions ([4]; simulated gastric fluid) | Molecule | Optimum cell growth concentration [1] [µg/mL] | Cell growth retarding concentration [1] [µg/mL]
1 | – | – | – | – | – | – | – | – | – | – | O=C([O-])c1cc(C(=O)[O-])c2c(n1)C(=O)C(=O)c1cc(C(=O)O)[nH]c1-2.[Na+].[Na+] [Comparative Example 1, disodium salt of PQQ, reference compound] | 75 | 150
2 | 3 | – | – | – | – | – | – | – | – | – | crystalline calcium salt of PQQ [Example 2] | 4.7 | 75
3 | 1 | very low | poorly water-soluble | – | – | – | – | – | – | – | O=C(O)c1cc(C(=O)O)c2c(n1)C(=O)C(=O)c1cc(C(=O)O)[nH]c1-2 [Example 1, crystalline calcium salt of PQQ] | 2.3 | 75
4 | – | – | – | White solid | Red solution | Red solution | Red solid | Red solid | easily released | difficult to be released | white calcium salt of PQQ [Example 15] | – | –
